# Patent publication US5126327A, “Melanocyte-stimulating hormone inhibitor and external preparation containing the same” (Lion Corporation, priority 1989, dated 1992)
# Residues, ends and D or L forms follow the SMILES beside them. No end group written: not given here.
# Columns and labels:
# [1] = test system: pigmented spots (chloasmata or freckles); assay: External preparation applied to pigmented spots of patients; type: in vivo, human; details: for Fading/relief of pigmented spots versus comparative cream / Skin trouble during or after use of the cream: cream containing 0.001 wt. % of compound; for Fading/relief of pigmented spots versus comparative cream: applied twice a day for two months, eight male and female patients; for Skin trouble during or after use of the cream: twice a day for two months
# Description: The cream thus prepared was applied to pigmented spots (chloasmata or freckles) of eight male and female patients twice a day (in the morning and evening) for two months.
# [2] = test system: hair follicle melanocytes; assay: MSH-antagonizing effect: eumelanin production in cultured skin grafts, specimen pre-incubated with grafts before α-MSH (Example 2); type: cell-based, yellow mice (C 57 BL/6J-A'); parameters: key: ±: weak; +: strong; details: skin grafts cultured in Ham's F-12 at 37° C. for 2 days; for Eumelanin production, 10^-9 M of α-MSH and 10^-8 M of specimen added: microscope observation at hair follicles
# Method: (§1) Skin grafts (about 1 mm×1 mm) of yellow mice (C 57 BL/6J-A') (7.5 days after the birth) containing hair follicle melanocytes were cultured in Ham's F-12 culture medium at 37° C. for 2 days. The culture media used were: (i) Ham's F-12 medium containing α-MSH, (ii) that containing both α-MSH and the compound of the present invention, i.e., the compound of the present invention and the skin grafts had been incubated in a Ham's F-12 medium so as to interact the compounds with a receptor on the melanocyte surface of the skin and then the resultant was contacted with α-MSH in a fresh Ham's F-12 medium and (iii) that containing no additive. After completion of the culture followed by fixation with 10% formalin, specimens were prepared by an ordinary method.
# [3] = test system: hair follicle melanocytes; assay: MSH-inhibiting effect: eumelanin production in cultured skin grafts, specimen pre-mixed with α-MSH (Example 10); type: cell-based, yellow mice (C 57 BL/6J-A'); parameters: key: ±: weak; +: strong; details: for Eumelanin production, 10^-9 M of α-MSH and 10^-8 M of specimen added: α-MSH and specimen mixed first, then skin grafts added, Ham's F-12, 37° C., 2 days
# Method: as §1, with “i.e., α-MSH and” for “i.e.,”, “were mixed” for “and the skin grafts had been incubated in a Ham's F-12 medium”, “each other” for “the compounds with a receptor on the melanocyte surface of the skin”, “skin grafts were added thereto,” for “resultant was contacted with α-MSH in a fresh Ham's F-12 medium”
Skin trouble during or after use of the cream [1],Compound,"Eumelanin production, 10^-9 M of α-MSH and 10^-8 M of specimen added [2]",other results
no skin trouble was observed,"CSCC[C@H](NC(=O)[C@H](CO)NC(=O)[C@H](Cc1ccc(O)cc1)NC(=O)[C@H](CO)NC(C)=O)C(=O)N[C@@H](CCC(=O)O)C(=O)N[C@@H](Cc1c[nH]cn1)C(=O)N[C@@H](CO)C(=O)N[C@@H](CCCNC(=N)N)C(=O)N[C@@H](Cc1c[nH]c2ccccc12)C(=O)NCC(=O)N[C@@H](CCCCN)C(=O)N1CCC[C@H]1C(=O)N[C@H](C(N)=O)C(C)C [Compound No. 40, Ac--Ser--Tyr--Ser--Met--Glu--His--Ser--Arg--Trp--Gly--Lys--Pro--Val--NH2]",±,Fading/relief of pigmented spots versus comparative cream [1]: far more faded
,"CC[C@H](C)[C@H](NC(C)=O)C(=O)N[C@@H](CC(C)C)C(=O)N[C@@H](CC(C)C)C(=O)N[C@@H](C)C(=O)N[C@@H](CS)C(=O)N[C@@H](C)C(=O)N[C@@H](CCCNC(=N)N)C(=O)N[C@H](C(=O)N[C@@H](CO)C(=O)N1CCC[C@H]1C(=O)NCC(=O)N[C@@H](CCCNC(=N)N)C(=O)N[C@@H](CCCNC(=N)N)C(N)=O)[C@@H](C)CC [Compound No. 116, Ac--Ile--Leu--Leu--Ala--Cys--Ala--Arg--Ile--Ser--Pro--Gly--Arg--Arg--NH2] (Ac-ILLACARISPGRR-NH2)",,"Relief of pigmented spots versus comparative milky lotion ([1]; milky lotion containing 0.0001 % of compound, same method as Example 3): relieved the pigmented spots; Eumelanin production, 10^-9 M of α-MSH and 10^-8 M of specimen added [3]: ±"
,"CSCC[C@H](NC(C)=O)C(=O)N[C@@H](CCC(=O)O)C(=O)N[C@@H](Cc1c[nH]cn1)C(=O)N[C@@H](CO)C(=O)N[C@@H](CCCNC(=N)N)C(=O)N[C@@H](Cc1c[nH]c2ccccc12)C(=O)NCC(=O)N[C@@H](CCCCN)C(N)=O [Compound No. 14, Ac--Met--Glu--His--Ser--Arg--Trp--Gly--Lys--NH2] (Ac-MEHSRWGK-NH2)",±,
,Ac--Cys--His--Cys--Cys--Trp--Arg--Ser--His--Gln--Pro--Ala--Arg--Pro--NH2 (Ac-CHCCWRSHQPARP-NH2; cysteine pairing not given here) [Compound No. 85],±,Fading/relief of pigmented spots versus comparative cream [1]: relieved the pigmented spots
no skin trouble was observed,"CC[C@H](C)[C@H](N)C(=O)N[C@@H](CC(C)C)C(=O)N[C@@H](CC(C)C)C(=O)N[C@@H](C)C(=O)N[C@@H](CS)C(=O)N[C@@H](C)C(=O)N[C@@H](CCCNC(=N)N)C(=O)N[C@H](C(=O)N[C@@H](CO)C(=O)N1CCC[C@H]1C(=O)NCC(=O)N[C@@H](CCCNC(=N)N)C(=O)N[C@@H](CCCNC(=N)N)C(=O)O)[C@@H](C)CC [Compound No. 113, Ile--Leu--Leu--Ala--Cys--Ala--Arg--Ile--Ser--Pro--Gly--Arg--Arg] (H-ILLACARISPGRR-OH)",,
,"α-MSH: melanocyte-stimulating hormone (melanotropin), peptide hormone that activates melanocytes; stimulus in the skin graft test (SYSMEHFRWGKPV; ends and bridges not checked; UniProt P01189 138-150, looked up) [reference compound]",,"Eumelanin production, 10^-9 M of α-MSH added ([3]; α-MSH alone, skin grafts cultured in Ham's F-12 at 37° C. for 2 days): +; Eumelanin production, 10^-9 M of α-MSH added ([2]; α-MSH alone): +"
,"CC[C@H](C)[C@H](NC(=O)[C@H](CC(C)C)NC(=O)[C@H](CC(C)C)NC(=O)[C@H](CC(C)C)NC(=O)[C@H](CCC(N)=O)NC(=O)[C@H](CC(C)C)NC(=O)[C@H](C)NC(=O)[C@H](Cc1c[nH]cn1)NC(=O)[C@H](CC(C)C)NC(C)=O)C(=O)N[C@@H](CC(C)C)C(=O)N[C@@H](CC(C)C)C(=O)N[C@@H](C)C(=O)N[C@@H](CS)C(=O)N[C@@H](C)C(=O)N[C@@H](CCCNC(=N)N)C(=O)N[C@H](C(=O)N[C@@H](CO)C(=O)N1CCC[C@H]1C(=O)NCC(=O)N[C@@H](CCCNC(=N)N)C(=O)N[C@@H](CCCNC(=N)N)C(N)=O)[C@@H](C)CC [Compound No. 135, Ac--Leu--His--Ala--Leu--Gln--Leu--Leu--Leu--Ile--Leu--Leu--Ala--Cys--Ala--Arg--Ile--Ser--Pro--Gly--Arg--Arg--NH2] (Ac-LHALQLLLILLACARISPGRR-NH2)",,"Eumelanin production, 10^-9 M of α-MSH and 10^-8 M of specimen added [3]: ±"
no skin trouble was observed,"CC[C@H](C)[C@H](NC(=O)[C@H](CC(C)C)NC(=O)[C@H](CC(C)C)NC(=O)[C@H](CC(C)C)NC(=O)[C@H](CCC(N)=O)NC(=O)[C@H](CC(C)C)NC(=O)[C@H](C)NC(=O)[C@H](Cc1c[nH]cn1)NC(=O)[C@@H](N)CC(C)C)C(=O)N[C@@H](CC(C)C)C(=O)N[C@@H](CC(C)C)C(=O)N[C@@H](C)C(=O)N[C@@H](CS)C(=O)N[C@@H](C)C(=O)N[C@@H](CCCNC(=N)N)C(=O)N[C@H](C(=O)N[C@@H](CO)C(=O)N1CCC[C@H]1C(=O)NCC(=O)N[C@@H](CCCNC(=N)N)C(=O)N[C@@H](CCCNC(=N)N)C(=O)O)[C@@H](C)CC [Compound No. 132, Leu--His--Ala--Leu--Gln--Leu--Leu--Leu--Ile--Leu--Leu--Ala--Cys--Ala--Arg--Ile--Ser--Pro--Gly--Arg--Arg] (H-LHALQLLLILLACARISPGRR-OH)",,
,Ac--Cys--Cys--Trp--Arg--Ser--His--Gln--Pro--NH2 (Ac-CCWRSHQP-NH2; cysteine pairing not given here) [compound 74],±,
